{"source": "paper PMC12631437", "about": "“Evaluation of the Activity of 4‑Quinolones against Multi-Life Stages of Plasmodium spp” (ACS Omega, 2025)", "key": {"[1]": {"tested_on": "Plasmodium falciparum 3D7 sensitive strain", "assay": "SYBR Green growth assay, asexual blood stages, 3D7 sensitive strain", "type": "cell-based", "settings": "Plasmodium falciparum, 3D7, 72 h, asexual blood stages, 3D7 sensitive strain, 72 h; read-out: IC50", "description": "(§1) Parasite strains SB1-A6, 7G8, V1/S, and HB3 were acquired from BEI-MR4, while the ATQ R1 strain, carrying a V259L gene mutation, was generated in-house. […] Parasitemia was monitored using Giemsa-stained blood smears.\n(§2) Bioassays were conducted with synchronized ring-stage parasites using sorbitol synchronization. Antimalarial compounds were evaluated in 96-well plates, and parasite growth was assessed using a SYBR Green-based fluorescence assay The assays were conducted when the parasite quantity reached at least 70% of the ring stage. Compounds were initially added at specific concentrations in the first wells, followed by serial dilution (1:2) ranging from 20 μM to 0.009 μM. Subsequently, a solution containing parasites in RPMI medium at a hematocrit of 2% was added to each well, and the parasites were then incubated for 72 h.\n(§3) The IC50 values were determined using concentration–response curves generated in GraphPad 8 software. Additionally, the resistance index was calculated by comparing IC50 values obtained for the sensitive 3D7 strain with those of the resistant strains."}, "P. falciparum HB3 strain": {"tested_on": "P. falciparum HB3 strain", "assay": "SYBR Green growth assay, asexual blood stages, HB3 strain", "type": "cell-based, Plasmodium falciparum", "settings": "Plasmodium falciparum; HB3 strain, 72 h; read-out: IC50", "description": "as §1, §2, §3"}, "[2]": {"tested_on": "P. falciparum V1/S strain", "assay": "microbe, parasite or virus in culture", "type": "cell-based, Plasmodium falciparum", "settings": "Plasmodium falciparum, 72 h", "description": "(§4) Healthy blood samples for parasite culture were obtained from voluntary donors (approved under protocol #28176720.9.0000.0011), processed to remove white blood cells, and stored at 2 °C–8 °C for up to 15 days. Parasite strains SB1-A6, 7G8, V1/S, and HB3 were acquired from BEI-MR4, while the ATQ R1 strain, carrying a V259L gene mutation, was generated in-house. Infected erythrocytes were cultured in RPMI 1640 medium supplemented with Hepes, sodium bicarbonate, glucose, Albumax, and gentamicin, […], and incubated in a 5% CO2, 5% O2, and 90% N2 gas mixture at 37 °C with daily medium changes. Parasitemia was monitored using Giemsa-stained blood smears.\nas §2\n(§5) To assess parasite growth, the culture medium was replaced with a lysis solution (Trisbase: 49.31%, EDTA: 30.00%, Saponin: 0.16%, Triton: 0.02%) containing the fluorescent dye SYBR Green (Sigma). After a 30 min incubation, fluorescence readings were taken to determine the 50% inhibitory concentration (IC50) of parasite growth. The IC50 values were determined using concentration–response curves generated in GraphPad 8 software. Additionally, the resistance index was calculated by comparing IC50 values obtained for the sensitive 3D7 strain with those of the resistant strains."}, "P. falciparum 7G8 strain": {"tested_on": "P. falciparum 7G8 strain", "assay": "SYBR Green growth assay, asexual blood stages, 7G8 strain", "type": "cell-based, Plasmodium falciparum", "settings": "Plasmodium falciparum; 7G8 strain, 72 h; read-out: IC50", "description": "as §4, §2, §5"}, "[3]": {"tested_on": "P. falciparum SB1-A6 strain", "assay": "SYBR Green growth assay, asexual blood stages, SB1-A6 strain", "type": "cell-based, Plasmodium falciparum", "settings": "Plasmodium falciparum, 72 h", "description": "as §4, §2, §5"}, "[4]": {"tested_on": "P. falciparum ATQ_R1 strain", "assay": "SYBR Green growth assay, asexual blood stages, ATQ_R1 strain", "type": "cell-based, Plasmodium falciparum", "settings": "Plasmodium falciparum, 72 h", "description": "as §4, §2, §5"}, "P. vivax ookinetes": {"tested_on": "P. vivax ookinetes", "assay": "Ex vivo P. vivax ookinete formation assay with patient isolates", "type": "cell-based, Plasmodium vivax", "settings": "Plasmodium vivax, 24 h, 10 μM, n = 6 patients, read-out: P. vivax ookinete formation inhibition (median)", "description": "Participants were recruited from patients diagnosed with P. vivax malaria via Giemsa-stained blood smears at CEPEM in Porto Velho, Rondônia, Brazil (#28176720.9.0000.0011). Criteria included: P. vivax parasitemia >2000 parasites/μL, age 18–85, no severe malaria, no concomitant diseases, nonpregnant, and consent to study procedures. Approximately 10 mL of venous blood was collected into heparin-coated vials, maintained at 37 °C, and transported to PIVEM for DMFA. Malaria treatment followed Brazilian Ministry of Health guidelines and was unaffected by study participation. […] Erythrocytes were washed with incomplete RPMI-1640 medium by centrifugation at 1500 rpm for 10 min to remove leukocytes. […] The sample was centrifuged once at 450 g for 15 min without a brake. After centrifugation, the pellet remaining at the interface was collected and washed twice at 2000 g for 5 min. […] The parasites were incubated for 24 h at a temperature of 21–24 °C. After this period, the activity of the compounds was determined by microscopy, counting 100 fields to determine the parasitemia per μL in each sample, and counting the mature and immature ookinetes. […] Red blood cells were then washed with incomplete RPMI-1640 medium through centrifugation at 1500 rpm for 10 min to remove leukocytes. […] The sample was centrifuged once at 2000 rpm for 15 min without brake. After centrifugation, the remaining pellet at the interface was collected and washed twice at 2000 rpm for 5 min. […] Parasites were incubated for 24 h at a temperature of 21–24 °C. After this period, compound activity was determined by microscopy counting in 100 fields to determine parasitemia per μL in each sample."}, "HepG2 cells": {"tested_on": "HepG2 cells", "assay": "Mitochondrial toxicity, HepG2 cells cultured in glucose or galactose (resazurin)", "type": "cell-based", "settings": "HepG2 under either condition (glucose or galactose), 3.125–50 μM, 24 h", "description": "To evaluate mitochondrial toxicity, HepG2 cells were cultured in RPMI-1640 medium under two metabolic conditions: one group was maintained in standard RPMI supplemented with 2 g/L glucose (glucose condition), while the second group was gradually adapted to rely on galactose as the primary energy source. For this adaptation, glucose levels were reduced by 20% every 2 days until reaching a final concentration of 20% of the original glucose amount. On the day of the assay, the […] cells were cultured in glucose-free RPMI medium supplemented with 10 mM galactose. When cells reached 80% confluence, they were detached using 2 mL of trypsin-EDTA solution (0.2 g of EDTA) for 5 min at 37 °C, then resuspended in fresh medium and centrifuged at 100 × g for 1 min. After centrifugation, cells were counted using a Neubauer chamber and seeded at […] per well in 96-well plates containing 180 μL of culture medium. Plates were incubated at 37 °C with 5% CO2 for 12–16 h to allow for cell adhesion. […] After treatment, 40 μL of a 0.15 mg/mL resazurin solution (RSZ) was added to each well and incubated for an additional 5 h. RSZ is a nontoxic, cell-permeable blue dye that is reduced by metabolically active cells to highly fluorescent pink resorufin. Fluorescence was measured using a fluorimeter with excitation/emission at 560/590 nm. Cell viability was calculated relative to untreated controls (set at 100%), determined using GraphPad Prism 8."}, "164/GFP": {"tested_on": "164/GFP", "settings": "strain 164/GFP; cited from earlier work"}, "TM90C2B": {"tested_on": "TM90C2B", "settings": "strain TM90C2B; cited from earlier work"}, "[5]": {"tested_on": "P. falciparum oocysts in An. freeborni", "set-up": "method as in Sáenz et al.", "settings": "early stage gametocyte treatments; ref Sáenz et al.; cited from earlier work"}, "[6]": {"tested_on": "P. falciparum salivary gland infections in mosquitoes", "set-up": "method as in Sáenz et al.", "settings": "drug-treated blood at 1 μM, compared to untreated control; ref Sáenz et al.; cited from earlier work"}, "[7]": {"tested_on": "P. falciparum hepatic stages", "settings": "cited from earlier work"}}}
{"smiles": "O=C1C(O)=C([C@H]2CC[C@H](c3ccc(Cl)cc3)CC2)C(=O)c2ccccc21", "note": "[Atovaquone, atovaquone, reference compound]", "values": [{"measurement": "IC50", "setting": "[1]", "value": "1 ± 0.4", "unit": "nM"}, {"measurement": "IC50", "setting": "P. falciparum HB3 strain", "value": "0.7 ± 0.4", "unit": "nM"}, {"measurement": "IC50", "setting": "[2]", "value": "9 ± 0.8", "unit": "nM"}, {"measurement": "IC50", "setting": "P. falciparum 7G8 strain", "value": "6 ± 4", "unit": "nM"}, {"measurement": "IC50", "setting": "[3]", "value": "> 10", "unit": "µM"}, {"measurement": "IC50", "setting": "[4]", "value": "> 10", "unit": "µM"}, {"measurement": "inhibition at 10 µM", "setting": "P. vivax ookinetes", "value": 97, "unit": "%"}, {"measurement": "cell survival", "setting": "HepG2 cells", "value": "≥ 60", "unit": "%"}]}
{"smiles": "CCCCCCCCCCOc1cc2c(O)c(C(=O)OCC)cnc2cc1OCC", "note": "[Decoquinate]", "values": [{"measurement": "IC50", "setting": "164/GFP", "value": 10, "unit": "nM"}]}
{"smiles": "CCCCCCCc1c(C)[nH]c2cc(F)cc(F)c2c1=O", "note": "[ELQ-121]", "values": [{"measurement": "IC50", "setting": "TM90C2B", "value": 1.7, "unit": "nM"}]}
{"smiles": "CCCCc1cc2c(=O)c(C(=O)OCC)c[nH]c2cc1OCCOc1ccccc1", "note": "[ICI 56.780]", "values": [{"measurement": "reduction in oocyst numbers", "setting": "[5]", "value": 100, "unit": "%"}, {"measurement": "reduction of salivary gland infections", "setting": "[6]", "value": 80, "unit": "%"}]}
{"smiles": "N[C@@H]1[C@H]2CN(c3nc4c(cc3F)c(=O)c(C(=O)O)cn4-c3ccc(F)cc3F)C[C@@H]12", "note": "[trovafloxacin]", "values": [{"measurement": "IC50 P. falciparum hepatic stages", "setting": "[7]", "value": "21.6 ± 2.6", "unit": "µg/mL"}]}
